Experiment: DPPH radical scavenging activity after 180 mins
Type: functional

| SMILES | IC50 [µM] |
| --- | --- |
| O=C(O)c1cc(O)c(O)c(O)c1 [GALLIC ACID] | 8 |
| CC1=CC[C@H](C(C)(C)O[C@@H]2O[C@H](CO[C@@H]3O[C@@H](CO)[C@H](O)[C@H]3OC(=O)c3cc(O)c(O)c(O)c3)[C@@H](O)[C@H](O)[C@H]2O)CC1 | 11.6 |
| O=C(O)C[C@H]1CCC(=O)[C@@H]1C/C=C\CCO[C@@H]1O[C@H](COC(=O)c2cc(O)c(O)c(O)c2)[C@@H](O)[C@H](O)[C@H]1O | 11.2 |
| C=CCc1cc(OC)c(O)c(O[C@@H]2O[C@H](COC(=O)/C=C/c3cc(OC)c(O)c(OC)c3)[C@@H](O)[C@H](O)[C@H]2O)c1 | 15 |
| COc1cc(/C=C/C(=O)O)cc(OC)c1O [SINAPINATE] | 25.7 |
| C=CCc1ccc(O)c(OC)c1 [EUGENOL] | 27.5 |
| CC1=CC[C@@H](C(C)(C)O[C@@H]2O[C@H](CO[C@@H]3O[C@@H](CO)[C@H](O)[C@H]3OC(=O)c3cc(O)c(O)c(O)c3)[C@@H](O)[C@H](O)[C@H]2O)CC1 | 10.5 |

From ChEMBL document CHEMBL1149863, “Phenolic glycosides from berries of Pimenta dioica” (J Nat Prod, 2008)
